Results from publication PMC12446468, “Anti-inflammatory and cytotoxic assessment of flavonoids isolated from Viola odorata flowers with computer-guided docking study” (Scientific Reports, 2025).
In brackets after ≈: the same amount, converted by molar mass.

Experiments:
[1] = tested on: human colorectal carcinoma cells (HTC-116); assay: MTT cytotoxicity assay, HTC-116; type: cell-based; details: Homo sapiens, HTC-116, 48 h, read-out: IC50
Procedure: (§1) The assessment of cytotoxicity for the methanolic extract and isolated flavonoids was performed under controlled and sterile conditions within a Class II A2 Laminar flow biosafety cabinet. The carcinoma cell lines used in this study was obtained from Nawah Scientific Inc. (Cairo, Egypt). The cells were cultured in Dulbecco’s Modified Eagle’s Medium, enriched with 10% heat-inactivated fetal bovine serum, 100 U/ml penicillin, and 100 μg/ml streptomycin sulfate, maintained at […] in humidified incubators with 5% CO2. Upon reaching approximately 80% confluence, the cells were subcultured using a trypsin–EDTA solution. Harvesting occurred during the logarithmic growth phase. The methanolic extract and isolated flavonoids were dissolved in DMSO and stored at − 20 °C. For each experimental trial, the stock solutions were mixed with the culture medium to obtain the required final concentrations.
(§2) The effectiveness of the extract was compared to that of the reference drug, Doxorubicin. The percentage of cell viability was calculated by taking the ratio of the absorbance of the plant extract to that of the control, multiplied by 100. Furthermore, the IC50 value of the plant extract was determined using Sigma Plot software version 11 (Spw.exe) (https://sigmaplot.software.informer.com/11.0/).

[2] = MTT cytotoxicity assay, HTC-116; type: cell-based, human; details: human, HTC-116 cells (human colorectal carcinoma), 48 h
Procedure: as §1, §2

[3] = tested on: hepatocellular carcinoma (HepG2); assay: MTT cytotoxicity assay, HepG2; type: cell-based, human; details: Homo sapiens, HepG2, 48 h, read-out: IC50
Procedure: as §1, §2

[4] = MTT cytotoxicity assay, HepG2; type: cell-based, human; details: human, HepG2 cells (hepatocellular carcinoma), 48 h
Procedure: as §1, §2

[5] = tested on: human colonic epithelial cells (Caco-2); assay: MTT cytotoxicity assay, Caco-2; type: cell-based; details: Homo sapiens, Caco-2, 48 h, read-out: IC50
Procedure: as §1, §2

[6] = MTT cytotoxicity assay, Caco-2; type: cell-based, human; details: human, Caco-2 cells (human colonic epithelial cells), 48 h
Procedure: as §1, §2

COc1cccc2c1C(=O)c1c(O)c3c(c(O)c1C2=O)C[C@@](O)(C(=O)CO)C[C@@H]3O[C@H]1C[C@H](N)[C@H](O)[C@H](C)O1 [Doxorubicin, reference compound]
IC50 [1]: 25.7 µg/mL (≈ 47.3 µM) | cytotoxicity at 48 h, 6.25 µg/ml ([2]; HTC-116, 6.25 ug/ml): 31% | viability at 48 h, 6.25 µg/ml ([2]; HTC-116, 6.25 ug/ml, read-out: % Cell viability): 69% | cytotoxicity at 48 h, 12.5 µg/ml ([2]; HTC-116, 12.5 ug/ml): 43.1% | viability at 48 h, 12.5 µg/ml ([2]; HTC-116, 12.5 ug/ml, read-out: % Cell viability): 56.9% | cytotoxicity at 48 h, 25 µg/ml ([2]; HTC-116, 25 ug/ml): 53.8% | viability at 48 h, 25 µg/ml ([2]; HTC-116, 25 ug/ml, read-out: % Cell viability): 46.2% | cytotoxicity at 48 h, 50 µg/ml ([2]; HTC-116, 50 ug/ml): 70% | viability at 48 h, 50 µg/ml ([2]; HTC-116, 50 ug/ml, read-out: % Cell viability): 30% | cytotoxicity at 48 h, 100 µg/ml ([2]; HTC-116, 100 ug/ml): 91.2% | viability at 48 h, 100 µg/ml ([2]; HTC-116, 100 ug/ml, read-out: % Cell viability): 8.77% | IC50 [3]: 23.6 µg/mL (≈ 43.3 µM) | cytotoxicity at 48 h, 6.25 µg/ml ([4]; HepG2, 6.25 ug/ml): 31.8% | viability at 48 h, 6.25 µg/ml ([4]; HepG2, 6.25 ug/ml, read-out: % Cell viability): 68.2% | cytotoxicity at 48 h, 12.5 µg/ml ([4]; HepG2, 12.5 ug/ml): 37.7% | viability at 48 h, 12.5 µg/ml ([4]; HepG2, 12.5 ug/ml, read-out: % Cell viability): 62.3% | cytotoxicity at 48 h, 25 µg/ml ([4]; HepG2, 25 ug/ml): 60.1% | viability at 48 h, 25 µg/ml ([4]; HepG2, 25 ug/ml, read-out: % Cell viability): 39.9% | cytotoxicity at 48 h, 50 µg/ml ([4]; HepG2, 50 ug/ml): 76% | viability at 48 h, 50 µg/ml ([4]; HepG2, 50 ug/ml, read-out: % Cell viability): 24% | cytotoxicity at 48 h, 100 µg/ml ([4]; HepG2, 100 ug/ml): 92% | viability at 48 h, 100 µg/ml ([4]; HepG2, 100 ug/ml, read-out: % Cell viability): 7.95% | IC50 [5]: 27.1 µg/mL (≈ 49.9 µM) | cytotoxicity at 48 h, 6.25 µg/ml ([6]; Caco-2, 6.25 ug/ml): 28.1% | viability at 48 h, 6.25 µg/ml ([6]; Caco-2, 6.25 ug/ml, read-out: % Cell viability): 71.9% | cytotoxicity at 48 h, 12.5 µg/ml ([6]; Caco-2, 12.5 ug/ml): 41.6% | viability at 48 h, 12.5 µg/ml ([6]; Caco-2, 12.5 ug/ml, read-out: % Cell viability): 58.4% | cytotoxicity at 48 h, 25 µg/ml ([6]; Caco-2, 25 ug/ml): 53.9% | viability at 48 h, 25 µg/ml ([6]; Caco-2, 25 ug/ml, read-out: % Cell viability): 46.1% | cytotoxicity at 48 h, 50 µg/ml ([6]; Caco-2, 50 ug/ml): 71.2% | viability at 48 h, 50 µg/ml ([6]; Caco-2, 50 ug/ml, read-out: % Cell viability): 28.8% | cytotoxicity at 48 h, 100 µg/ml ([6]; Caco-2, 100 ug/ml): 92.1% | viability at 48 h, 100 µg/ml ([6]; Caco-2, 100 ug/ml, read-out: % Cell viability): 7.87%
